Kd data for five compounds are collected here from ChEMBL document CHEMBL1150977, “A quantitative analysis of kinase inhibitor selectivity” (Nat Biotechnol, 2008).

Experiment [1] addresses T1, Serine/threonine-protein kinase Chk1 (Homo sapiens, UniProt O14757).
T1 sequence (O14757 whole entry): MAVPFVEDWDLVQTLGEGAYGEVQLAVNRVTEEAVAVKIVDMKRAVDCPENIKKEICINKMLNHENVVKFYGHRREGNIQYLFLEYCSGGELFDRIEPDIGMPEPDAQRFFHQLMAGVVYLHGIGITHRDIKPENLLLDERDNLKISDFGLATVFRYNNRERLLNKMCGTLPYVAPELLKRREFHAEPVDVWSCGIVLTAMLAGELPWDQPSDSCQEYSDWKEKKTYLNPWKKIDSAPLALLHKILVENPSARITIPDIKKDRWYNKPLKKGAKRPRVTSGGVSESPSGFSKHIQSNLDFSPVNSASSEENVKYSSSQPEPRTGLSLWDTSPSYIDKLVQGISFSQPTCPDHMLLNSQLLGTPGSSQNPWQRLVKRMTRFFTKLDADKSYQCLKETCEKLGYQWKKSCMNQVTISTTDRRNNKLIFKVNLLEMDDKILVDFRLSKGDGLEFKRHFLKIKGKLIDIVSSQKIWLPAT

In experiment [2] the target is Casein kinase I isoform epsilon (Homo sapiens, UniProt P49674).
Experiment [3] has as its target Mitogen-activated protein kinase 14 (Homo sapiens, UniProt Q16539).
The target in experiment [4] is Receptor-type tyrosine-protein kinase FLT3 (Homo sapiens, UniProt P36888, D835H).
Experiment [5] concerns the target Epidermal growth factor receptor (Homo sapiens, UniProt P00533).
For experiment [6], the target named is Epidermal growth factor receptor (Homo sapiens, UniProt P00533, L858R).
For experiment [7], the target named is Epidermal growth factor receptor (Homo sapiens, UniProt P00533, G719C).
Experiment [8] addresses Epidermal growth factor receptor (Homo sapiens, UniProt P00533, G719S).
The target of experiment [9] is Epidermal growth factor receptor (Homo sapiens, UniProt P00533, L747-T751DEL).
Experiment [10] has as its target Epidermal growth factor receptor (Homo sapiens, UniProt P00533, S752-I759DEL).
In experiment [11] the target is Epidermal growth factor receptor (Homo sapiens, UniProt P00533, L861Q).
Experiment [12] concerns the target Epidermal growth factor receptor (Homo sapiens, UniProt P00533, A750P/L747-E749DEL).
The target in experiment [13] is Epidermal growth factor receptor (Homo sapiens, UniProt P00533, L747-S752DEL/P753S).
For experiment [14], the target named is Epidermal growth factor receptor (Homo sapiens, UniProt P00533, E746-A750DEL).
Experiment [15] deals with Cyclin-dependent kinase 9 (Homo sapiens, UniProt P50750).

Regarding `COCC(=O)NC/C=C/c1ccc2ncnc(Nc3ccc(Oc4ccc(C)nc4)c(C)c3)c2c1` [CP-724714], the Kd in experiment [1], in experiment [2], in experiment [3] and in experiment [4] was over 10 µM each time.

As for `Nc1nc(Nc2ccc(S(N)(=O)=O)cc2)nn1C(=O)c1c(F)cccc1F` [JNJ-7706621], the Kd (usually the free concentration of one partner at which half of the binding sites on the other are occupied at equilibrium, for simple one-to-one binding) in [2] is 3.6 µM; in experiment [5], over 10 µM; in [6] it was over 10 µM; in experiment [7], over 10 µM; in experiment [8] it was over 10 µM; in [9], over 10 µM. Further, the Kd in experiment [10], in [11], in [12], in experiment [13] and in experiment [14] was over 10 µM in each case.

For the compound `CCOc1cc2ncc(C#N)c(Nc3ccc(F)c(Cl)c3)c2cc1NC(=O)/C=C/CN(C)C` [PELITINIB], the values for the Kd in experiment [1], in experiment [2] and in experiment [3] were 1.9 µM, 0.1 µM and over 10 µM, respectively.

Consider `Oc1ccc(-c2nc(-c3ccncc3)c(-c3ccc(F)cc3)[nH]2)cc1` [SB-202190], for which the Kd is over 10 µM in [1], over 10 µM in experiment [15], 0.17 µM in experiment [2] and over 10 µM in experiment [4].

Regarding `NC(=O)c1ccc(-c2nc(-c3ccc4c(c3)OCO4)c(-c3ccccn3)[nH]2)cc1` [SB-431542], the Kd in experiment [1], in experiment [15], in experiment [5], in [6], in experiment [7] and in [8] was over 10 µM throughout. Besides, the Kd in [9], in experiment [10], in experiment [11], in experiment [12], in experiment [13] and in [14] was over 10 µM throughout.
